Consider 51 compounds from ChEMBL document CHEMBL1201862, “PubChem BioAssay data set” (2004).

The term AC50 denotes the concentration giving half of the maximal activity seen. Broadly, the CC50 is the concentration giving 50% cytotoxicity. What is called EC50 is the concentration that produces a half-maximal response.

Calls of active or inactive are those of the source. Cut-off read from the data, not from the text of the source, for most assays here: actives have a measured EC50 and inactives only a lower limit. Bounds are passed on as bounds.

Assay [1] can be described thus: Luminescence Cell-Based Dose Retest to Confirm Inhibitors of Cancer Stem Cells. [Related pubchem assays (depositor defined):AID2717, AID2721]. It counts as functional. The note with it: Homo sapiens.
Another assay concerns the target T1, Cytochrome P450 1A2 (Homo sapiens, UniProt P05177).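 Note: PubChem cytochrome P450 panel assay, CYP1A2 panel member.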
T1 sequence (P05177 whole entry): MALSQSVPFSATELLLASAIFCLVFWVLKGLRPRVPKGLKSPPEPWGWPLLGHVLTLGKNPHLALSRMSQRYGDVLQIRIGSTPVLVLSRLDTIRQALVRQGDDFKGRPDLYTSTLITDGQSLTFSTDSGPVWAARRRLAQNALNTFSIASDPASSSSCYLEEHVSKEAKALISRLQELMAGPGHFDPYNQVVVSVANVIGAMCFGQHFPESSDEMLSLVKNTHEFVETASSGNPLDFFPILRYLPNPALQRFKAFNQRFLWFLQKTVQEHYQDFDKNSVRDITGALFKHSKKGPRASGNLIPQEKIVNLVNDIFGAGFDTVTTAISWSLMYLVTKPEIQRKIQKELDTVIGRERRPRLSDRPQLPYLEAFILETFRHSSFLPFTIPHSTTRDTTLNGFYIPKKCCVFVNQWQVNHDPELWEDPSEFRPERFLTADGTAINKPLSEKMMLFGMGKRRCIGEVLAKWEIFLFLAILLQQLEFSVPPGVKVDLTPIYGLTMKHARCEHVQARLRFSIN

Assay [2] is described as follows: viability of uninfected HEp-2 cells – cell-based, HTS, cytotoxicity control for RSV inhibitor project, dose response (AID 2410). In kind it is functional. The conditions noted are these: human respiratory syncytial virus.
The subject of a further assay is INS1. The experiment in a line: INS-1E survival protection against cytokine death – cell-based, luminescence, retest, dose response (AID 449756).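 Note: cell death triggered by IL-1 beta plus TNF-alpha plus IFN-gamma mixture; protective hits raise ATP signal compared with cytokine alone wells.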 In kind it is functional. The conditions noted are these: Rattus norvegicus.
Assay [3] is described as follows: Trypanosoma cruzi growth suppression in host cells – NIH3T3 host cells, beta-gal luminescence, confirmation (AID 2044).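 Note: intracellular parasites grown in NIH/3T3 mouse fibroblasts as host cells; luminescent beta-galactosidase reporter signal from transgenic T. cruzi replicating inside host cells; inhibitors lower the luminescence signal.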 In kind it is functional, cell-based.
The nature of assay [4]: NIH3T3 cell viability loss – ATP luminescence, mouse fibroblasts, counter-screen, dose response (AID 2010).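 Note: cells exposed to compound for about 90 hours before reading.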 It counts as functional, cell-based. A general note: A counterscreen serves to expose hits that act by an unwanted route or on another target.
Assay [5] concerns Streptococcus sp. 'group A'. Nature of the assay: Streptococcus pyogenes SK(-)GAS viability under kanamycin – luminescence, BacTiterGlo, confirmation, counter-screen for streptokinase expression inhibitor project, dose response (AID 1900). In kind it is functional, organism-based.
For a further assay, the system named is Streptococcus. The experiment in a line: GAS UMAA2166 growth inhibition – luminescence, BacTiterGlo, counter-screen for streptokinase expression inhibitor project, dose response (AID 1915).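 Note: potency for reduction of bacterial viability or growth.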 In kind it is functional, organism-based.
A further assay deals with T2, Streptokinase A (Streptococcus pyogenes serotype M1, UniProt P10520).
T2 sequence (P10520 whole entry): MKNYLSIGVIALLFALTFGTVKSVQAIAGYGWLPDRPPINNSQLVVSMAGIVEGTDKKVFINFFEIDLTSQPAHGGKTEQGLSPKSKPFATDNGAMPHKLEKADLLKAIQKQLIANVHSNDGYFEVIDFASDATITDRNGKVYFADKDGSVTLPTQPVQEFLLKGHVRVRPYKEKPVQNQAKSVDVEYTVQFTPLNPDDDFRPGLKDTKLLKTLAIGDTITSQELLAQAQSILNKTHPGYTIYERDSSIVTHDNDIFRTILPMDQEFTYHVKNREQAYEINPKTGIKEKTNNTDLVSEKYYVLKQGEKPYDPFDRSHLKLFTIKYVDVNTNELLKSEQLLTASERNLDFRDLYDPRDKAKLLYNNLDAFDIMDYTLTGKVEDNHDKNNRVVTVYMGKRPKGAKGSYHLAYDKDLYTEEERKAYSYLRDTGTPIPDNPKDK
The experiment in a line: viability-normalized secreted streptokinase activity reduction – plasminogen activation absorbance, OD405, dose response (AID 1914).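 Note: secreted streptokinase activity via plasminogen activation per viability signal from cell pellet.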 It counts as functional, Streptococcus pyogenes M1 GAS.

`Cc1ccc(C)c(OCCCCN2CCNCC2)c1C`: the AC50 in [1] was 1.03 µM (active).

For `COc1ccc(C(=O)N/N=C(\C)Cn2nc([N+](=O)[O-])cc2C)cc1`, the AC50 on Cytochrome P450 1A2 was 20 µM (inconclusive).

Consider `COc1ccc2nc(NC(=S)NC(=O)c3ccco3)sc2c1`, for which the CC50 in assay [2] is > 50 µM (active). On to `CCCOc1ccc2c3c(c(=O)oc2c1OCCC)CCCC3`, for which the 50% cytotoxic concentration (CC50) in [2] was 23.5 µM (active). The AC50 with INS1 was 13.7 µM (active). As to `O=C(Nc1ccccc1-c1nc2ccccc2[nH]1)c1ccc(S(=O)(=O)N2CCCCC2)cc1`, the AC50 at Cytochrome P450 1A2 was 3.55 µM (inconclusive). `CCOc1ccc(CNCCCSc2ncccn2)cc1`: the EC50 in [3] is 0.909 µM (active); in assay [4], 9.74 µM (active). On to `FCCCOc1ccc(-c2nccc(-c3ccc(F)cc3)n2)cc1`, for which the CC50 in assay [2] is 26 µM (active). `CN1[C@@H]2CC[C@H]1CC(OC(=O)c1cc(Cl)cc(Cl)c1)C2` (stereo partly specified): the AC50 at Cytochrome P450 1A2 is 31.6 µM (inconclusive). As to `COc1ccc(/C=C2\SC(=S)N(NS(=O)(=O)c3ccccc3)C2=O)c(OC)c1`, in assay [2], the 50% cytotoxic concentration (CC50) was 35.4 µM (active). Turning to `N#CCCn1c(=O)c(-c2ccccc2)nc2cnc(Nc3ccccc3)nc21`, the AC50 on Cytochrome P450 1A2 was 0.794 µM (inconclusive). For the compound `O=C(NCCc1ccccn1)c1ccc(OC2CCN(Cc3ccccn3)CC2)cc1`, the EC50 (in assay [5]; with Streptococcus; at Streptokinase A) was > 150 µM (not active) each time.

As to `CCOC(=O)CC(=O)CSc1nc(N)c(C#N)c(-c2ccc(Cl)cc2)c1C#N`, the CC50 in assay [2] is 23.6 µM (active). Take `O=C(Nc1nc2cc3c(cc2s1)OCO3)C1CC1`: the EC50 in assay [3] is 1.3 µM (active); in [4] it was > 60 µM (not active). For the compound `COCc1cc(C)nc2sc(C(=O)NN)c(-n3cccc3)c12`, the CC50 in assay [2] is 14.3 µM (active). `COCC(C)n1c(SCc2ccc(OC)c(F)c2)nc2ccccc2c1=O` (stereo unspecified): the results for the EC50 in assay [3] and in assay [4] were 2.17 µM (active) and > 60 µM (not active), respectively. Consider `CN(C)S(=O)(=O)Oc1ccsc1C(=O)Nc1cccc(Cl)c1Cl`, for which the EC50 in assay [3] was 3.47 µM (active); in [4], > 60 µM (not active). Consider `CC1CCN(c2ccc(NC(=O)c3ccc([N+](=O)[O-])o3)cc2)CC1`, for which the concentration giving a half-maximal response (EC50) is > 16 µM (not active) in [3] and 4.41 µM (active) in [4]. For the same compound, the AC50 in the assay with INS1 is 10.3 µM (active). As for `Cc1ccc(C)c(N2CCN(C(=O)c3ccc4c(c3)c(C)c(C)n4C)CC2)c1`, the AC50 in [1] is 6.01 µM (active). As for `COc1ccc(OC)c(NC(=O)c2cccc(Cn3cc(Br)c([N+](=O)[O-])n3)c2)c1`, the EC50 was 0.794 µM (active) in assay [3] and 9.07 µM (active) in [4]. As for `O=C(NNC(=S)NC(=O)c1ccccc1)c1cccc([N+](=O)[O-])c1`, the half-maximal effective concentration (EC50) in assay [5] is 3.85 µM (active); in the assay on Streptococcus it was 8.75 µM (active). As to `CN(C)CCCNS(=O)(=O)c1ccc(NC2CCCCCC2)c([N+](=O)[O-])c1`, the AC50 in the assay with INS1 was 6.22 µM (active). In the case of `CN(C)CC(C)(C)C/N=C/c1c(O)[nH]c2ccccc12`, the EC50 is 0.152 µM (active) in [3] and > 30 µM (not active) in assay [4]. For `Cc1sc2[nH]c(-c3ccccn3)nc(=O)c2c1-c1ccccc1`, the EC50 on Streptokinase A was > 150 µM (not active). For `NS(=O)(=O)c1ccc(NCc2cnc3ccccc3c2)cc1`, at Cytochrome P450 1A2, the AC50 is 1.58 µM (inconclusive). As to `Cc1cc(C)nc(NC(=N)NCCc2c[nH]c3ccccc23)n1`, the EC50 is 7.95 µM (active) in [5], > 150 µM (not active) in the assay on Streptococcus and > 150 µM (not active) at Streptokinase A. Consider `Cc1ccc(C)c(S(=O)(=O)NC(C)C(=O)Nc2ccc(-c3nc4ccccc4s3)cc2)c1` (stereo unspecified), for which the AC50 at Cytochrome P450 1A2 was 15.8 µM (inconclusive). As for `Cc1nc(O)c(C#N)c(Nc2ccc(Cl)cc2)n1`, in assay [2], the CC50 was 32.3 µM (active). Still for that read-out and setting: the figure for `Cc1cc(C(=O)CSc2nnc(N)s2)c(C)n1CCc1ccc(Cl)cc1` is 17.1 µM (active). As for `O=C(O)c1ccccc1NCn1c(=S)sc2ccccc21`, the AC50 on Cytochrome P450 1A2 was 0.501 µM (inconclusive). With `O=C(c1cc2sccc2n1Cc1ccc(F)cc1)N1CCc2ccccc21`, in [2], the cytotoxic concentration (CC50) is 36.2 µM (active). The same measure, in the same setting: the result for `CCOCCCN=C(S)N1CCCN(c2nc3cc(C)cc(C)c3cc2C#N)CC1` reads 31.4 µM (active); that for `CCNC(=O)COC(=O)/C=C/c1c(C)nn(Cc2cccc(OC)c2)c1Cl`, > 50 µM (active). For the compound `COC(=O)NC(=S)Nc1ccc(Oc2ccc(Cl)cc2)c(Cl)c1`, the concentration giving a half-maximal response (EC50) was 2.41 µM (active) in [3] and > 60 µM (not active) in assay [4]. As for `COc1cc([N+](=O)[O-])cc(/C=N/NC(=O)C(C)Nc2cccc(C)c2)c1O` (stereo unspecified), the results for the EC50 (in assay [5]; in the assay on Streptococcus; at Streptokinase A) were 10.9 µM (active), > 150 µM (not active) and > 150 µM (not active), respectively. For `Cc1ccc(-c2cc(C(F)F)nc(NCc3cccnc3)n2)cc1`, the EC50 in assay [3] is 3.05 µM (active); in assay [4], > 60 µM (not active).

As to `CCOC(=O)C1(S(=O)(=O)c2ccc(Cl)cc2)CCN(Cc2ccc(Cl)cc2)CC1`, the AC50 on Cytochrome P450 1A2 is 31.6 µM (inconclusive). For `O=C(c1ccco1)N1CCC2(CCCN(Cc3ccncc3)C2)CC1`, the AC50 at Cytochrome P450 1A2 is 15.8 µM (inconclusive). For `CCC(C)Sc1ccc(-c2nc3ccc(C)cn3c2NC2CCCCC2)cc1` (stereo unspecified), the EC50 in assay [3] was 0.885 µM (active); in assay [4], > 60 µM (not active). Turning to `CNc1nc(OC)nc(N(C#N)CN2C(=O)c3ccccc3S2(=O)=O)n1`, the EC50 (in assay [5]; in the assay with Streptococcus; at Streptokinase A) was > 150 µM (not active) each time. As to `Cc1ccc(CN(Cc2cccnc2)C(=O)CN2C(=O)COc3ccccc32)o1`, the values for the concentration giving a half-maximal response (EC50) in assay [3] and in assay [4] were 0.276 µM (active) and > 60 µM (not active), respectively. As to `COc1ccc(NC(=O)/C=C/c2cccc(F)c2)cn1`, in assay [2], the CC50 was 34.7 µM (active).

For `CCN(CC)S(=O)(=O)c1ccc(Cl)c(C(=O)Nc2ccc(Cl)cc2[N+](=O)[O-])c1`, the AC50 with INS1 was 7.83 µM (active). Consider `COc1cc(NC(=O)Nc2cccc(Cl)c2)c(OC)cc1NC(=O)CN1CCCCC1`, for which the AC50 in assay [1] is 4.44 µM (active). As for `Cc1c(CCC(=O)O)c(=O)oc2cc3occ(-c4ccc(Cl)cc4)c3cc12`, the figures for the concentration for a half-maximal effect (EC50) (in assay [5]; in the assay on Streptococcus; at Streptokinase A) were 7.96 µM (active), > 150 µM (not active) and > 150 µM (not active), respectively. With `COc1ccc(Br)cc1C(=O)Nc1cccc(C)c1`, in assay [1], the AC50 is > 195 µM (inactive). The same measure, in the same setting: the result for `C[C@H](CO)N1C[C@H](C)[C@@H](CN(C)S(=O)(=O)c2ccccc2)Oc2ccc(NC(=O)Nc3ccc(C(F)(F)F)cc3)cc2C1=O` reads 8.42 µM (active). With `Cc1cccc(-n2c(N)c(-c3nc4ccccc4n3C)c3nc4ccccc4nc32)c1`, the EC50 is 3.66 µM (active) in assay [5], > 150 µM (not active) in the assay with Streptococcus and > 150 µM (not active) on Streptokinase A. As to `CC(C)[C@H](NC(=O)N1CC(=O)Nc2ccccc21)C(=O)N[C@@H](Cc1ccccc1)C(=O)O`, the concentration giving a half-maximal response (EC50) (in [5]; in the assay on Streptococcus; at Streptokinase A) was > 150 µM (not active) in each case.

With `Cc1cc(C)nc(NC(=O)/C=C/c2ccc3c(c2)OCO3)c1`, the AC50 in assay [1] is 1.91 µM (active).

Turning to `O=C(CCn1ccnc1)Nc1ccc2ccccc2c1`, the results for the EC50 in [3] and in [4] were 1.63 µM (active) and > 60 µM (not active), respectively. The matching figures for `COc1cc(C(=O)NCCCN(C)C)ccc1OCC(=O)Nc1cccc(C(F)(F)F)c1`: 1.23 µM (active) and > 60 µM (not active).
